Results from patent US20160324992A1, “IDENTIFICATION AND TREATMENT OF VULNERABLE PLAQUES” (OTTAWA HEART INSTITUTE RESEARCH CORPORATION, priority 2015, published 2016).
Values joined by “and” are separate entries in the source; they are usually repeats but may differ in a detail not shown here. Equal entries are not always repeated.

System: ApoE−/− mice with established atherosclerosis
Experiment: Atherosclerosis study: time-release pellets in Western diet fed ApoE−/− mice
Type: in vivo, mouse
Method: Atherosclerosis Studies. All animal experiments were performed in accordance with the Animal Care and Use Committee, University of Ottawa, Canada. Eight week old Apo E^−/− mice (total n=17 mice) were fed an adjusted calories diet (21% fat; 0.2% cholesterol, Harlan Teklad) for 4 weeks to induce atherosclerotic progression. Mice were then injected with time-release placebo or Nec-1s tablets (2 mg/kg/day), which were synthesized by Innovative Research of America, USA. Mice were euthanized after 6 weeks of treatment, perfused with saline and aortic roots were embedded in OCT medium and frozen. Aortic roots were sectioned (10 μm) and stained with hematoxylin and eosin for lesion area and necrotic core quantification, and a minimum of 10 sections per animal were measured across the length of the entire aortic root. For en face aortic lesion quantifications, aortas were dissected removing all branching vessels down to the femoral bifurcation and then sliced ventrally and images of aortas were digitally captured using ImagePro™. Lesion areas within the entire length of the aorta were quantified using Image J™ and expressed relative to the total aortic surface area. Immunohistochemistry for vascular smooth muscle cells was performed using a primary antibody for a-smooth muscle actin (monoclonal, Sigma) conjugated to alkaline phosphatase and visualized using SigmaFAST Red (Sigma). Statistical significance between the two groups were analyzed using Students' t-test (p<0.05).
Atherosclerosis Studies. All animal experiments were performed in accordance with the Animal Care and Use Committee, University of Ottawa, Canada. Eight week old apoE−/− mice (total n=17 mice) were fed an adjusted calories diet (21% fat; 0.2% cholesterol, Harlan Teklad) for 4 weeks to induce atherosclerotic progression. Mice were then injected with time-release placebo or stable Necrostatin-1 (Nec-1)15 tablets (2 mg/kg/day), which were synthesized by Innovative Research of America, USA. Mice were euthanized after 6 weeks of treatment, perfused with saline and aortic roots were embedded in OCT medium and frozen. Aortic roots were sectioned (10 μm) and stained with hematoxylin and eosin for lesion area and necrotic core quantification, and a minimum of 10 sections per animal were measured across the length of the entire aortic root. For en face aortic lesion quantifications, aortas were dissected removing all branching vessels down to the femoral bifurcation and then sliced ventrally and images of aortas were digitally captured using ImageProTM. Lesion areas within the entire length of the aorta were quantified using Image JTM and expressed relative to the total aortic surface area. Immunohistochemistry to visualize macrophages and smooth muscle cells was performed using primary antibodies to CD68 (rat monoclonal, Serotec) or phosho-MLKL (rabbit polyclonal, Abcam) with a secondary conjugated to biotin and α-smooth muscle actin (monoclonal, Sigma) conjugated to alkaline phosphatase and visualized using DAB or SigmaFAST Red (Sigma), respectively. Image J was used to quantify positive staining area and statistical significance between the two groups were analyzed using Students' t-test (p<0.05)

CN1C(=O)C(Cc2c[nH]c3ccccc23)NC1=S (stereo not shown) [Nec-1, necrostatin-1]
body weight (in words) (2 mg/kg/day, 6 weeks, data not shown): not affected | CD68+ macrophage area, % of lesion area (2 mg/kg/day, 6 weeks, placebo 34.4%±3.2, p=ns): 43.5%±3.7 | increase of smooth muscle actin area within the aortic sinus (2 mg/kg/day, 6 weeks, vs placebo): 70% | atherosclerotic lesion area versus placebo (in words) (Western diet 4 weeks then 2 mg/kg/day for 6 weeks): reduced lesion area in the aortic sinus and aorta | reduction of aortic root lesion area compared to controls (Western diet, 2 mg/kg/day, 6 weeks): 27% | aortic root lesion area (Western diet, 2 mg/kg/day, 6 weeks, placebo 0.50±0.03 mm^2): 0.37±0.05 mm^2 | en face lesion area as a % of total aorta area (Western diet, 2 mg/kg/day, 6 weeks, placebo 9.9±0.9%): 3.1±0.3% | reduction of en face lesion burden compared to placebo (Western diet, time-release pellet 2 mg/kg/day, 6 weeks, ascending and descending aorta): 68% | reduction of pMLKL positive area compared to placebo controls (aortic sinus lesions, 2 mg/kg/day, 6 weeks): 63% | reduction of lesion necrotic core area compared to placebo (aortic sinus, 2 mg/kg/day, 6 weeks): 62.6% and 62%
